The numbers were not newly measured in US20190209552A1, “PHARMACEUTICAL COMPOSITION OF [ (3-HYDROXY-4 -PYRON-2-YL) METHYL] -AMINE DERIVATIVES AND DNA DEMETHYLATING AGENTS AND THEIR USE AS ANTI-NEOPLASTIC DRUGS” (UNIVERSITA' DEGLI STUDI DI URBINO "CARLO BO", priority 2016, published 2019), which cites them from elsewhere.

SMILES strings stand for the structures.

Data set [1] concerns Ewing's sarcoma.
Data set [2] has as its system Ewing's sarcoma. The source holds these as a separate data set.

Take `CN1CCN(Cc2occc(=O)c2O)CCN(C)CCN(Cc2occc(=O)c2O)CC1` [Maltonis, 4(N), 10(N)-bis [(3-hydroxy-4-Pyron-2-yl)methyl]-1,7-dimethyl-1,4,7,10tetraazacyclododecane]: in the data set with Ewing's sarcoma [1], the efficacy in vitro result is “effective”. The efficacy in vivo entry in the data set on Ewing's sarcoma [2] is given as “effective”.
